One assay addresses T1, FLT3-ITD (Homo sapiens, UniProt P36888).
T1 construct: FLT3-ITD; Invitrogen #PV6190
T1 sequence (P36888 1-993): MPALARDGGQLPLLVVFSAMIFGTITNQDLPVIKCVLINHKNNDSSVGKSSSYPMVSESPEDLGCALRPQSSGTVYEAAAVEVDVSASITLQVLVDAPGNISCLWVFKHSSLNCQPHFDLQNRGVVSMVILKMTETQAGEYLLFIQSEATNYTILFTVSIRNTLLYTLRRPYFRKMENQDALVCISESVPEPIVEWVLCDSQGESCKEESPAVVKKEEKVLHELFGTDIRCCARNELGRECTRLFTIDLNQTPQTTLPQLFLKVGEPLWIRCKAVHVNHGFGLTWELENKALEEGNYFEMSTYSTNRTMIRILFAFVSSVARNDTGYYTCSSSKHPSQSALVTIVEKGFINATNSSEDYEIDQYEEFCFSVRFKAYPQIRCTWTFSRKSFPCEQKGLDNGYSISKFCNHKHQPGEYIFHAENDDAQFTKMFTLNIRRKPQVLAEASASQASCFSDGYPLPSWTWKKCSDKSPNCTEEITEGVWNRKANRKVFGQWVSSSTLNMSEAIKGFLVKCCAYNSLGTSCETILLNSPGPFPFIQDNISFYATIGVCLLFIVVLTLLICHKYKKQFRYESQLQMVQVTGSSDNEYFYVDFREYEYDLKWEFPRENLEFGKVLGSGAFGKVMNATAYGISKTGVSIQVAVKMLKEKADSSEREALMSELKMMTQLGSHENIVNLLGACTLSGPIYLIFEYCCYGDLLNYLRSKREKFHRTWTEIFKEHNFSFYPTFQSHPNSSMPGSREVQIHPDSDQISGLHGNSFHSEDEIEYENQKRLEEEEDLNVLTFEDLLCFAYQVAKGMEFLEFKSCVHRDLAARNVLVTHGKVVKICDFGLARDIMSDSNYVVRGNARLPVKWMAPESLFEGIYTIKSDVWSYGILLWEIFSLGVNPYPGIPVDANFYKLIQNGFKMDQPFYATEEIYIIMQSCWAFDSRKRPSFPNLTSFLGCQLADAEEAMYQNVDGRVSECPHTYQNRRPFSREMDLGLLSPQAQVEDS
Briefly: FLT3-ITD biochemical kinase assay (AlphaScreen). The procedure, abridged: (§1)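 AlphaScreen read-out of tyrosine phosphorylation of a 30 nM biotinylated poly(Glu4-Tyr) substrate, captured on streptavidin donor and PY20 acceptor beads at room temperature. ATP for IC50 work was 100 μM with FLT3-ITD and 10 μM with FLT3-D835Y; reduced 580 nm proximity signal reflects kinase inhibition.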
(In general: Alpha assays give light when donor and acceptor beads are brought close together.)

The next assay has as its target T2, FLT3-D835Y (Homo sapiens, UniProt P36888, D835Y).
T2 construct: purchased Invitrogen PV3967
T2 sequence (P36888 27-993 D835Y): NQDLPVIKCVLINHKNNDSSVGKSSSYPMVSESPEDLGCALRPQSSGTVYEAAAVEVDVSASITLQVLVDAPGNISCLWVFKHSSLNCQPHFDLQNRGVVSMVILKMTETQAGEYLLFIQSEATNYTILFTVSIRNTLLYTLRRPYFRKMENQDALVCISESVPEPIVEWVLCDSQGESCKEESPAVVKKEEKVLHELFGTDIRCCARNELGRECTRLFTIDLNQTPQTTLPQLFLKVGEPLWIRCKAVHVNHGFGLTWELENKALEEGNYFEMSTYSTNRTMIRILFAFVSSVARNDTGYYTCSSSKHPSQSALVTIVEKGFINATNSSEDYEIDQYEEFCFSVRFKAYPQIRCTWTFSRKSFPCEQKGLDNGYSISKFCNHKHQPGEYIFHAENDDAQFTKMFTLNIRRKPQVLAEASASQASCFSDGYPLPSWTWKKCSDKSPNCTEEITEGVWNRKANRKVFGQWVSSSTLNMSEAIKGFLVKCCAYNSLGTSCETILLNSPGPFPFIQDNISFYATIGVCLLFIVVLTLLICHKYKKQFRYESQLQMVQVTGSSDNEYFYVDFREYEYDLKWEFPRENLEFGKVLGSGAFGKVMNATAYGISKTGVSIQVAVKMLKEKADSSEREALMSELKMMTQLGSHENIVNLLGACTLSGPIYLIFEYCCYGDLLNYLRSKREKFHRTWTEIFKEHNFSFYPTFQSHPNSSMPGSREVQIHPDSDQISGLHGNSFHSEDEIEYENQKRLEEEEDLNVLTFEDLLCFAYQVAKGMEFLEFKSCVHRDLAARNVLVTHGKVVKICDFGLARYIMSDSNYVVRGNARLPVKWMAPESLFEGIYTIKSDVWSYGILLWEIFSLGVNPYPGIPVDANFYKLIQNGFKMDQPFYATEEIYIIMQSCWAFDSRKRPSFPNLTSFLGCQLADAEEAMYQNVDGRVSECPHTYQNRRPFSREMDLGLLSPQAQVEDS
Briefly: FLT3-D835Y biochemical kinase assay (AlphaScreen). The procedure, abridged:
as §1

The target in the next assay is c-Kit (Homo sapiens, UniProt P10721). Kind of assay: c-Kit biochemical assay (per US 2007/0032519). On the procedure: The following Table 2 provides data indicating FLT3 ITD, FLT3 D835Y, and KIT biochemical activity, and BaF3 FLT3 ITD/F69L cellular inhibitory activity for exemplary compounds described in this disclosure. In the table below, activity is provided as follows: +++=0.0001<IC50<1 μM; ++=1 μM<IC50<10 μM, +=10 μM<IC50<200 μM. Assays for the biochemical activity of c-Kit and FMS were conducted according to those assays described in US Patent Application Publication number US 2007/0032519, the disclosure of which is hereby incorporated by reference in its entirety.

Among the data in US10160755B2 (Plexxikon Inc., priority 2015, dated 2018) are IC50 values, retold here.

Each structure is given as a SMILES string.

c-Kit, sequence (P10721 26-976): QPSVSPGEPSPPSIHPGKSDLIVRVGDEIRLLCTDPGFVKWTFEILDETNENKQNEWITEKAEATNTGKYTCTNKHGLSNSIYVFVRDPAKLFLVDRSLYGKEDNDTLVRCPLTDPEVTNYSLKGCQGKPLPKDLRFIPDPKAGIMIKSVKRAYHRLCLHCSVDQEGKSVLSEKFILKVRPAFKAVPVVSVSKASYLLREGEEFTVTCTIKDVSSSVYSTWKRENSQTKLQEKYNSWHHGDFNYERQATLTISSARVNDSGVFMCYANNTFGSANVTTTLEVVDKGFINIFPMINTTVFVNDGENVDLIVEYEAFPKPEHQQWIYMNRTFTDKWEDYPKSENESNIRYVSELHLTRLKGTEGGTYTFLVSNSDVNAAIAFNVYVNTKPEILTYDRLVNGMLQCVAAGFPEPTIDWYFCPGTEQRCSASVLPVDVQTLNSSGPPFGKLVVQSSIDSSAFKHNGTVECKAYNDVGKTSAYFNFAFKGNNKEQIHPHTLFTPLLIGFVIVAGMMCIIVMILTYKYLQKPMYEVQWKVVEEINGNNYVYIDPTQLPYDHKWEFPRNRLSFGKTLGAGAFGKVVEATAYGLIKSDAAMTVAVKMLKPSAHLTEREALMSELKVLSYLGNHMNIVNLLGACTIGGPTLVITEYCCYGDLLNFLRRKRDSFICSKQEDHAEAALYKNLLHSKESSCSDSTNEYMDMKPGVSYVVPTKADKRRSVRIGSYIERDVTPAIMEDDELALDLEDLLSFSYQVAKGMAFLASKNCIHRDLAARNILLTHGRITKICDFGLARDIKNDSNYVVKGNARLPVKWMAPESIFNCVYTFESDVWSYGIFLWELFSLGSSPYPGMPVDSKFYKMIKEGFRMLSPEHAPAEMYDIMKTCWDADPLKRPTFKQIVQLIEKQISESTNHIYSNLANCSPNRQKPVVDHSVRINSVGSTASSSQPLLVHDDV

Take `COc1cnc2[nH]cc(-c3ccc4ncn(CC(F)(F)F)c4c3)c2c1` [P-047, 5-methoxy-3-[3-(2,2,2-trifluoroethyl)benzimidazol-5-yl]-1H-pyrrolo[2,3-b]pyridine]: the values for the IC50 against FLT3-ITD, at FLT3-D835Y and against c-Kit were 0.0001 to 1 µM, 0.0001 to 1 µM and 1 to 10 µM, respectively.
In the case of `CC(C)(C)n1cnc2ccc(-c3c[nH]c4ncc(-c5ccc(C(=O)O)nc5)nc34)cc21` [P-376, 5-[7-(3-tert-butylbenzimidazol-5-yl)-5H-pyrrolo[2,3-b]pyrazin-2-yl]pyridine-2-carboxylic acid], the IC50 at FLT3-ITD, against FLT3-D835Y and against c-Kit was 0.0001 to 1 µM throughout.
`COc1cc(-c2cnc3[nH]cc(-c4ccc5ncn(C)c5c4)c3c2)ccn1` [P-042, 5-(2-methoxy-4-pyridyl)-3-(3-methylbenzimidazol-5-yl)-1H-pyrrolo[2,3-b]pyridine]: the IC50 against FLT3-ITD lay within 0.0001 to 1 µM; on FLT3-D835Y it was 0.0001 to 1 µM; at c-Kit, 1 to 10 µM.
As for `COc1cnc2[nH]cc(-c3ccc4ncn(C5CC5)c4c3)c2c1` [P-060, 1-cyclopropyl-6-(5-methoxy-1H-pyrrolo[2,3-b]pyridin-3-yl)benzimidazole], the figures for the IC50 on FLT3-ITD, against FLT3-D835Y and at c-Kit were 0.0001 to 1 µM, 0.0001 to 1 µM and 10 to 200 µM, respectively.
For the molecule `COc1ccc(-c2cnc3[nH]cc(-c4ccc5[nH]cnc5c4)c3c2)cn1` [P-024, 3-(1H-benzimidazol-5-yl)-5-(6-methoxy-3-pyridyl)-1H-pyrrolo[2,3-b]pyridine], the concentration for half-maximal inhibition (IC50) on FLT3-ITD lay within 0.0001 to 1 µM; against FLT3-D835Y, 0.0001 to 1 µM; at c-Kit, 1 to 10 µM.
With `COc1cc(-c2cnc3[nH]cc(-c4ccc5ncn(C)c5c4)c3c2)cc(C)n1` [P-124, 5-(2-methoxy-6-methyl-4-pyridyl)-3-(3-methylbenzimidazol-5-yl)-1H-pyrrolo[2,3-b]pyridine], the figures for the IC50 against FLT3-ITD, against FLT3-D835Y and on c-Kit were 0.0001 to 1 µM, 0.0001 to 1 µM and 10 to 200 µM, respectively.
Turning to `CCCS(=O)(=O)Nc1cccc(-c2cnc3[nH]cc(-c4ccc5ncn(C)c5c4)c3c2)c1` [P-121, N-[3-[3-(3-methylbenzimidazol-5-yl)-1H-pyrrolo[2,3-b]pyridin-5-yl]phenyl]propane-1-sulfonamide], the values for the IC50 against FLT3-ITD, on FLT3-D835Y and against c-Kit were 0.0001 to 1 µM, 0.0001 to 1 µM and 1 to 10 µM, respectively.
For `COc1ccc(-c2cnc3[nH]cc(-c4ccc5ncn(C)c5c4)c3n2)cn1` [P-041, 2-(6-methoxy-3-pyridyl)-7-(3-methylbenzimidazol-5-yl)-5H-pyrrolo[2,3-b]pyrazine], the IC50 was in the range of 0.0001 to 1 µM at FLT3-ITD, 0.0001 to 1 µM on FLT3-D835Y and 1 to 10 µM against c-Kit.
For the molecule `O=S(=O)(C1CC1)N1CC=C(c2cnc3[nH]cc(-c4ccc5[nH]cnc5c4)c3c2)CC1` [P-031, 3-(1H-benzimidazol-5-yl)-5-(1-cyclopropylsulfonyl-3,6-dihydro-2H-pyridin-4-yl)-1H-pyrrolo[2,3-b]pyridine], the IC50 at FLT3-ITD was 0.0001 to 1 µM; at FLT3-D835Y, 1 to 10 µM; against c-Kit it was 1 to 10 µM.
With `CCS(=O)(=O)Nc1cccc(-c2cnc3[nH]cc(-c4ccc5ncn(C)c5c4)c3c2)c1` [P-094, N-[3-[3-(3-methylbenzimidazol-5-yl)-1H-pyrrolo[2,3-b]pyridin-5-yl]phenyl]ethanesulfonamide], the IC50 on FLT3-ITD was 0.0001 to 1 µM; on FLT3-D835Y it was 0.0001 to 1 µM; against c-Kit, 1 to 10 µM.
In the case of `Cn1cnc2ccc(-c3c[nH]c4ncc(-c5cnc(C6CC6)nc5)cc34)cc21` [P-039, 5-(2-cyclopropylpyrimidin-5-yl)-3-(3-methylbenzimidazol-5-yl)-1H-pyrrolo[2,3-b]pyridine], the IC50 against FLT3-ITD was in the range of 0.0001 to 1 µM; against FLT3-D835Y, 0.0001 to 1 µM; at c-Kit it was 1 to 10 µM.
As for `COc1ccc(-c2cnc3[nH]cc(-c4ccc5ncn(C)c5c4)c3c2)cn1` [P-040, 5-(6-methoxy-3-pyridyl)-3-(3-methylbenzimidazol-5-yl)-1H-pyrrolo[2,3-b]pyridine], the IC50 is 0.0001 to 1 µM at FLT3-ITD, 0.0001 to 1 µM against FLT3-D835Y and 1 to 10 µM on c-Kit.
Turning to `Cn1cnc2ccc(-c3c[nH]c4ncc(Cl)cc34)cc21` [P-019, 5-chloro-3-(3-methylbenzimidazol-5-yl)-1H-pyrrolo[2,3-b]pyridine], the results for the IC50 at FLT3-ITD, against FLT3-D835Y and against c-Kit were 0.0001 to 1 µM, 0.0001 to 1 µM and 10 to 200 µM, respectively.
`COc1cnc2[nH]cc(-c3ccc4occc4c3)c2c1` [P-036, 3-(benzofuran-5-yl)-5-methoxy-1H-pyrrolo[2,3-b]pyridine]: the figures for the IC50 against FLT3-ITD, against FLT3-D835Y and against c-Kit were 1 to 10 µM, 10 to 200 µM and 10 to 200 µM, respectively.
As to `N#Cc1cnc2[nH]cc(-c3ccc4nc[nH]c4c3)c2c1` [P-023, 3-(3H-benzimidazol-5-yl)-1H-pyrrolo[2,3-b]pyridine-5-carbonitrile], the IC50 against FLT3-ITD lay in the range of 0.0001 to 1 µM; against FLT3-D835Y it was 1 to 10 µM; at c-Kit, 1 to 10 µM.
With `CS(=O)(=O)Nc1cccc(-c2cnc3[nH]cc(-c4ccc5ncn(CC(F)(F)F)c5c4)c3n2)c1` [P-069, N-[3-[7-[3-(2,2,2-trifluoroethyl)benzimidazol-5-yl]-5H-pyrrolo[2,3-b]pyrazin-2-yl]phenyl]methanesulfonamide], the half-maximal inhibitory concentration (IC50) against FLT3-ITD was 0.0001 to 1 µM; on FLT3-D835Y it was 0.0001 to 1 µM; against c-Kit, 10 to 200 µM.
For `COc1cnc2[nH]cc(-c3ccc4[nH]nnc4c3)c2c1` [P-014, 5-(5-methoxy-1H-pyrrolo[2,3-b]pyridin-3-yl)-1H-benzotriazole], the half-maximal inhibitory concentration (IC50) against FLT3-ITD fell in the range of 0.0001 to 1 µM; against FLT3-D835Y, 0.0001 to 1 µM; against c-Kit, 10 to 200 µM.
`COc1cnc2[nH]cc(-c3ccc4ncn(C)c4c3)c2c1` [P-016, 5-methoxy-3-(3-methylbenzimidazol-5-yl)-1H-pyrrolo[2,3-b]pyridine]: the IC50 at FLT3-ITD lay within 0.0001 to 1 µM; at FLT3-D835Y, 0.0001 to 1 µM; at c-Kit, 10 to 200 µM.
Take `Cn1cnc2ccc(-c3c[nH]c4ncc(-c5cccc(NS(C)(=O)=O)c5)cc34)cc21` [P-037, N-[3-[3-(3-methylbenzimidazol-5-yl)-1H-pyrrolo[2,3-b]pyridin-5-yl]phenyl]methanesulfonamide]: the IC50 fell in the range of 0.0001 to 1 µM against FLT3-ITD, 0.0001 to 1 µM at FLT3-D835Y and 10 to 200 µM at c-Kit.

As usually defined, the IC50 is the midpoint of a concentration-inhibition curve. Low readings indicate greater potency, high ones weaker potency.
